Test results: the supplement of paper PMC10307832

Tests used:
Assay in all cases: relative viability (nuclei count vs DMSO), 5 days (fraction); higher = more cells survive
R406 + Tozasertib = compound: COc1cc(Nc2ncc(F)c(Nc3ccc4c(n3)NC(=O)C(C)(C)O4)n2)cc(OC)c1OC [R406] + Cc1cc(Nc2cc(N3CCN(C)CC3)nc(Sc3ccc(NC(=O)C4CC4)cc3)n2)n[nH]1 [Tozasertib] (partner 0.1 µM)
Method in brief: (§1)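 For relative viability, nuclei counts in treated wells were divided by those in vehicle wells. Lung cancer cell lines had been pin-tool dosed in 1536-well plates the day after seeding and cultured for 5 days, then fixed and stained in one step (final 0.05% Triton X-100, 1% formaldehyde, 1 ug/ml Hoechst) and imaged at 4×. Doses were one drug alone or a fixed anchor-drug dose plus five library-drug doses (not always all listed) in √10 steps, and values are duplicate-plate medians.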

Daporinad + Bortezomib = compound: O=C(/C=C/c1cccnc1)NCCCCC1CCN(C(=O)c2ccccc2)CC1 [Daporinad] + CC(C)C[C@H](NC(=O)[C@H](Cc1ccccc1)NC(=O)c1cnccn1)B(O)O [Bortezomib] (partner 0.002 µM)
Method in brief: as §1

Daporinad + Lapatinib = compound: O=C(/C=C/c1cccnc1)NCCCCC1CCN(C(=O)c2ccccc2)CC1 [Daporinad] + CS(=O)(=O)CCNCc1ccc(-c2ccc3ncnc(Nc4ccc(OCc5cccc(F)c5)c(Cl)c4)c3c2)o1 [Lapatinib] (partner 2 µM)
Method in brief: as §1

R406 + Phenformin = compound: COc1cc(Nc2ncc(F)c(Nc3ccc4c(n3)NC(=O)C(C)(C)O4)n2)cc(OC)c1OC [R406] + N=C(N)NC(=N)NCCc1ccccc1 [Phenformin] (partner 250 µM)
Method in brief: as §1

Cell Line | relative viability (R406 + Tozasertib; first compound 0.08 µM) | relative viability (R406 + Tozasertib; first compound 0.253 µM) | relative viability (R406 + Tozasertib; first compound 0.8 µM) | relative viability (R406 + Tozasertib; first compound 2.53 µM) | relative viability (R406 + Tozasertib; first compound 8 µM) | relative viability (Daporinad + Bortezomib; first compound 0.0005 µM) | relative viability (Daporinad + Bortezomib; first compound 0.001581 µM) | relative viability (Daporinad + Bortezomib; first compound 0.005 µM) | relative viability (Daporinad + Bortezomib; first compound 0.01581 µM) | relative viability (Daporinad + Lapatinib; first compound 0.0005 µM) | relative viability (Daporinad + Lapatinib; first compound 0.001581 µM) | relative viability (Daporinad + Lapatinib; first compound 0.005 µM) | relative viability (Daporinad + Lapatinib; first compound 0.01581 µM) | relative viability (R406 + Phenformin; first compound 0.08 µM) | relative viability (R406 + Phenformin; first compound 0.253 µM) | relative viability (R406 + Phenformin; first compound 0.8 µM) | relative viability (R406 + Phenformin; first compound 2.53 µM) | relative viability (R406 + Phenformin; first compound 8 µM)
NCI-H3122 | 0.491 | 0.415 | 0.34 | 0.328 | 0.45 | 1.02 | 1.01 | 1.02 | 1.05 | 1.01 | 1.12 | 1.01 | 1.02 | 0.396 | 0.39 | 0.396 | 0.365 | 0.369
PC-3 [JPC-3] | 0.942 | 0.964 | 1.01 | 0.88 | 0.516 | 0.85 | 0.864 | 0.844 | 0.827 | 0.433 | 0.459 | 0.437 | 0.455 | 0.466 | 0.515 | 0.526 | 0.413 | 0.377
PC-14 | 0.57 | 0.681 | 0.623 | 0.546 | 0.603 | 0.845 | 0.891 | 0.988 | 0.533 | 0.271 | 0.383 | 0.31 | 0.393 | 0.602 | 0.951 | 0.746 | 0.332 | 0.12
RERF-LC-KJ | 0.463 | 0.653 | 0.447 | 0.481 | 0.402 | 0.996 | 1.05 | 1.45 | 1.26 | 0.682 | 0.803 | 0.799 | 0.888 | 0.43 | 0.415 | 0.41 | 0.362 | 0.286
SK-LU-1 | 0.301 | 0.318 | 0.363 | 0.256 | 0.106 | 0.921 | 1.34 | 1.16 | 1.61 | 0.889 | 0.907 | 1.09 | 0.969 | 0.597 | 0.608 | 0.628 | 0.175 | 0.0854
SW 1573 | 0.179 | 0.233 | 0.22 | 0.175 | 0.0962 | 1.12 | 0.769 | 1.05 | 0.714 | 1.12 | 0.322 | 1.2 | 0.833 | 0.371 | 0.43 | 0.469 | 0.263 | 0.151
